Laboratory results published in patent publication US20140255432A1, “SILVESTROL, SILVESTROL ANALOGS AND USES THEREOF” (priority 2011, published 2014).

Columns and labels:
[1] = system: STAT1, STAT3, AKT and NF-κB p65; test: Immunoblot of LMP-1 downstream pathways in LCL; type: cell-based, human
Experimental: Cells were harvested and lysed as described (Alinari 2011). Following collection of whole cell lysates, equal amounts of protein were resolved by SDS-PAGE and transferred onto a PVDF membrane (Millipore, Billerica, Mass.). Membrane was probed overnight at 4° C. with β-actin, pSTAT1, pSTAT3, STAT1, STAT3, pAkt, Akt (Cell Signaling Technology, Danvers, Mass.), or LMP-1 (DakoCytomation, Carpinteria, Calif.). After incubation with HRP-conjugated secondary antibody (Cell Signaling Technology), protein was detected with SuperSignal West Pico Chemiluminescent Substrate (Pierce, Rockford, Ill.).
Through its cytoplasmic C-terminal-activating region 1 (CTAR1), LMP-1 constitutively activates multiple pro-survival signaling pathways including NF-κB, PI3K/AKT, and STATs 1 and 3 (Shair 2007; Gires 1999; Dawson 2003; Kung 2008; Kung 2011) similar to an external growth stimulus. Thus, LMP-1 directly and indirectly promotes tumor cell growth and survival through diverse mechanisms. To investigate the effects of silvestrol on these pathways, LCLs were incubated for 24, 72, and 120 hr with vehicle or 10 nM silvestrol, and cell extracts were analyzed by immunoblot. […] Using the same treatment conditions, a decrease in the levels of both total Akt and its activated, phosphorylated form was observed. […] Total levels of NF-κB proteins such as p50, p105, and IKBa were unchanged (left panel), as were Bcl2 family proteins such as Bcl2, Mel1, and Bax (right panel) (FIG. 36).

[2] = system: immune effector subsets (CD3+/CD4+, CD3+/CD8+, CD3-/CD56+); test: Irradiated LCL / autologous PBMC co-cultures, flow cytometry; type: cell-based, human; conditions: 14 days
Experimental: Lymphoblastoid cell lines (LCL) were derived in vivo by engrafting severe combined immune-deficient (SCID) mice (Taconic, Hudson N.Y.) with human peripheral blood mononuclear cells (PBMC) from a healthy EBV-positive donor as described (Rowe 1991; Baiocchi 1994). Co-cultures (Cocx) were created by mixing 5×10^4 LCL (either non-irradiated or irradiated with 14000 rad) per well with equal numbers of autologous PBMC in 96-well plates. Cultures were grown in the presence of 10 U/mL IL-2 and were given a single dose of silvestrol and cultured for 10-14 days.
Cells from irradiated or non-irradiated co-cultures were co-stained with LIVE/DEAD cell stain (Invitrogen, Grand Island, N.Y.) and hu-CD3-APC and either hu-CD4-PE, hu-CD-8-PE, hu-CD19-PE (BD Biosciences, San Diego, Calif.), or hu-CD56-PE (Beckman Coulter, Brea, Calif.). Live events were gathered by gating on cells negative for the LIVE/DEAD stain on an FC500 cytometer (Beckman Coulter). Cell viability was also measured by flow cytometry at 24, 72, and 120 hr using annexin-V-FITC and propidium iodide (PI) according to the manufacturer's instructions (BD Biosciences).
To explore the immune modulatory activity of silvestrol in EBV-LPD, in vitro co-cultures (CoCx) were used. These cultures were created by lethally irradiating LCL lines and mixing them at a ratio of 1:1 with PBMC from the same healthy donor from which the LCL was derived. The PBMC are activated and expand in response to the antigenic stimuli from the EBV-infected LCL (Rowe 1991; Baiocchi 1994; Mosier 1995). CoCx created using three LCL and their respective autologous PBMC were incubated in the presence of 10 U/mL IL-2 and treated with 0 (vehicle only), 2, 5, or 10 nM silvestrol for 14 days. Flow cytometric analysis was conducted. Cells were gated on Live events were gathered by gating on cells negative for the LIVE/DEAD stain. Data are expressed as percentage of viable population, relative to the vehicle CoCx condition, for total cells, CD3^+/CD4^+, CD3^+/C8^+, and CD3^−CD56^+ cells. Results shown are the averages from three individual CoCx. […] As the irradiated LCL were absent by this time, silvestrol allowed for expansion of the normal effector population following LCL exposure.

[3] = system: K562 cells; test: NK cytotoxicity of K562 cells; type: cell-based; conditions: 10 nM (FIG. 41)
Source text: FIG. 41 presents data regarding NK cytotoxicity of K562 cells. […] FIG. 42 presents data regarding the cytotoxicity of LCLs pretreated with BZLF 1. […] BZLF1 antigen pulsed LCLs promoted enhanced killing in untreated and silvestrol-treated CTLs. FIG. 43 presents data relating to CD4 IFNgamma release with LCL pretreated with BZLF1. […] FIG. 44 presents data relating to CD4 IFNgamma release with LCL pretreated with BZLF 1. […] FIG. 45 presents data relating to interleukin-6 induction by silvestrol. […] FIG. 46 presents data relating to a change in LMP-1 expression following silvestrol treatment. […] Three cell lines were examined on days 1, 3, and 5 following treatment. FIG. 47 presents data relating to a change in EBNA1 expression following silvestrol treatment. Three cell lines were examined on days 1, 3, and 5 following treatment.

## COC(=O)[C@H]1[C@@H](O)[C@@]2(O)c3c(OC)cc(O[C@@H]4O[C@@H]([C@H](O)CO)CO[C@H]4OC)cc3O[C@@]2(c2ccc(OC)cc2)[C@@H]1c1ccccc1 [silvestrol]
[1]; 10 nM, 24, 72, 120 hr
  phosphorylated (activated) STAT1 level: decreased
  phosphorylated (activated) STAT3 level: decreased
  phosphorylated Akt level: a decrease
  total Akt level: a decrease
  total STAT1 level: remained unchanged
  total STAT3 level: remained unchanged
  total p65 levels: relatively unchanged
[1]; FIG. 36 left panel
  total levels of NF-κB proteins p50, p105, IKBa: unchanged
[1]; FIG. 36 right panel
  Bcl2 family proteins Bcl2, Mcl1, Bax: unchanged
[2]; 10 nM, 10 U/mL IL-2
  total number of cells expanded in CoCx: lower than in the vehicle controls
[2]; 2, 5, 10 nM
  CD4+ T helper cell population relative to untreated CoCx: mild decrease
  CD8+ cytotoxic T cell population relative to untreated CoCx: mild decrease
  CD56+ natural killer cell population relative to untreated CoCx: relative increase
[3]
  direct killing of K562 cells by NK cells: not adversely affected
